These results are taken from the NIST ThermoML archive (doi:10.1016/j.tca.2015.05.015).

For data set [1] the following is noted: Crystal; DTA.
Data set [2] in a line: Molar enthalpy of transition or fusion. The following applies: Crystal; DSC.

± gives the expanded uncertainty stated by the source.

Take `CCCCCCCCCCCCCCCCCC` [octadecane]: the Normal melting temperature in data set [1] worked out at 25 ± 5 °C. In addition, the “Molar enthalpy of transition or fusion” value in data set [2] amounted to 14.2 ± 0.598 kcal/mol.

As for `CCCCCCCCCCCCCCCC` [hexadecane], in data set [1], the Normal melting temperature came to 17 ± 5 °C. The “Molar enthalpy of transition or fusion” value in data set [2] was 12 ± 0.55 kcal/mol.
